Laboratory results: patent publication US9944668B2, “Manganese-based magnetic resonance contrast agents” (The General Hospital Corporation, priority 2013, dated 2018)
One block for each molecule: values may come before it.

How the values were obtained:
Assay type in all cases: physicochemical
[1] = T1 relaxivity (r1) measurement at 1.4 T, 37° C., TRIS buffer pH 7.4; conditions: for r1 (relaxivity): pH 7.4, 37° C., 1.4 Tesla, TRIS buffer
Method: (§1) Liquid chromatography-electrospray mass spectrometry (LC-MS) was performed using an Agilent 1100 Series apparatus with an LC/MSD trap and Daly conversion dynode detector with UV detection at 220, 254 and 280 nm. The methods used on this system are as follows: (a) Luna C18 column (100×2 mm); eluent A: H2O/0.1% formic acid, B: MeCN/0.1% formic acid; gradient: 5% B to 95% B over 9 minutes; flow rate 0.8 mL/min (used for characterization of organic compounds), and (b) Kromasil C18 column (250×4.6 mm); eluent C: 95% MeCN/5% 10 mM ammonium acetate, D: 10 mM ammonium acetate; gradient 5% C to 8% C over 14 minutes; flow rate 0.8 ml/min (used for characterization of manganese complexes). Reversed-phase semipreparative purification was performed on a Rainin Dynamax HPLC system with UV detection at 254 nm using a Polaris C18 column. The method used for purification is as follows: The mobile phase A was 50 mM ammonium acetate buffer, pH 6.5 and mobile phase B was a mixture of 5% 50 mM ammonium acetate buffer, pH 6.5/95% MeCN. Starting from 5% B, the fraction of B increased to 8% over 23 minutes. The column was washed with 100% B for 2 minutes and then ramped to 5% B. The system was re-equilibrated at 5% B for 3 minutes. Relaxivity measurements were performed on a Bruker mq60 Minispec at 1.4 T and 37° C. Manganese concentrations were determined using an Agilent 7500a ICP-MS system. All samples were diluted with 0.1% Triton X-100 in 5% nitric acid containing 20 ppb of Lu (as internal standard). The ratio of Mn (54.94)/Lu(174.97) was used to quantify the manganese concentration. A linear calibration curve ranging from 0.1 ppb to 200 ppb was generated daily for the quantification. UV-Vis spectra were recorded on a SpectraMax M2 spectrophotometer using quartz cuvette with a 1 cm path length. Cyclic voltammetry of Mn^IIHBET, Mn^IIEDTA and Mn^IIIHBET was recorded using a Nuvant EZstat pro potentiostat in TRIS buffer (pH=7.4), containing 0.5M KNO3 as supporting electrolyte, at 100 mVs-1 scan rate. Glassy carbon was used as the working electrode, Ag/AgCl served as the reference electrode and Pt wire was used as the auxiliary electrode. The K4FeCN6/K3FeCN6 couple was used as the internal standard.
T1 was measured with an inversion recovery pulse sequence taking 10 inversion times. Relaxivity was determined from the slope of a plot of 1/T1 vs. concentration of in TRIS buffer, pH=7.4 at 37° C. The concentration of manganese in each stock solution was determined using ICP-MS.

[2] = Cyclic voltammetry of manganese complexes (Mn(III)/Mn(II) redox couple); conditions: for Half-cell potential: pH 7.4, vs. normal hydrogen electrode (NHE)
Method: as §1

[3] = Relaxivity (r1) at different field strengths in HEPES buffer; conditions: 37° C., pH 7.4 HEPES buffer
Method: The relaxivities of the compounds for Formulas (XI) and (XII) were determined at different field strengths at 37° C. in pH 7.4 HEPES buffer. The relaxivity was obtained from the slope of a plot of 1/T1 vs. [Mn] for different Mn concentrations. Since Formula (XI) contains 6 Mn per molecule, the ionic (per Mn) and molecular (per molecule) relaxivities are given below.

[4] = Kinetics of reduction of Mn^III-HBET by glutathione; conditions: 37° C., pH 7.4; first-order in both [GSH] and [Mn^III-HBET]
Method: This series of kinetic experiments were conducted at 37° C. (pH 7.4) to determine the empirical rate law for the reduction of Mn^III-HBET by glutathione. […] This feature was used to monitor the reduction of […] over time. Initial reaction rates were measured at a three different glutathione concentrations (5 mM, 10 mM and 20 mM). Additionally, for each glutathione concentration, the reaction was performed at four different initial concentrations of Mn^III-HBET (0.3 mM, 0.4 mM, 0.5 mM and 0.6 mM). By using a large excess of glutathione in these experiments, we found the reaction behaved pseudo first-order with respect to the […] complex as expressed in equation S1. [Mn^IIIHBET]t=[Mn^IIIHBET]o·e^−k^obs^·t (eq. S1)
Here, the observed rate constant (kobs) is simply the product of the actual rate constant (k) and [GSH], t is time, and the subscripts ‘t’ and ‘o’ refer to the concentration at time ‘t’ or the initial concentration, respectively. […] In this way, the slope of each line is equal to −k·[GSH] and the intercept is In[MnIII-HBET]o. Based on these experiments, we determined that the reaction was first-order in both [GSH] and [Mn^III-HBET] with an overall second-order rate constant of (3.8±0.3)×10^−1M^−1s^−1.

[5] = T1 relaxivity measurement by MR imaging at 4.7 T; conditions: room temperature, pH 7.4 TRIS buffer
Method: MR imaging was performed using a Bruker Biospec 4.7 T system. Three samples (˜500 μL) were placed in a homemade sample holder and imaged using a volume coil. Acquisition matrix=64×256 for 0.234×0.312 mm^2 in-plane resolution; slice thickness=5 mm. T1-weighted images were obtained with a fast low angle shot (FLASH) gradient echo sequence: TR/TE/FA=20/5.44/40° with 8 averages. T1 was determined using a 2D rapid acquisition refocused echo (RARE) inversion recovery sequence: TR=3200 ms, TE=9.7 ms. Inversion times (TI): 5, 45, 85, 165, 325, 645, 1285, 1925 and 3205 ms. T1 was obtained from a nonlinear least square fit of the signal intensity (SI(t)) vs. TI curve where T1, SI(0) and a are adjustable parameters, equation S2. SI(t)=SI(0)[1−α,e^TI/T1] (eq. S2)

r1 (relaxivity) [1]: 2.76 mM⁻¹ s⁻¹
Half-cell potential [2]: 379 mV
Molecule: O=C([O-])CN(CCN(CC(=O)[O-])Cc1ccccc1[O-])CC(=O)[O-].[Mn+2].[Na+].[Na+] [Compound 4, Na2[Mn^IIHBET]]

r1 (relaxivity) [1]: 2.30 mM⁻¹ s⁻¹
Molecule: O=C([O-])CN(CC(=O)[O-])C1CCCCC1N(CC(=O)[O-])Cc1cc([N+](=O)[O-])ccc1[O-].[Mn+2].[Na+].[Na+] (stereo not shown) [Compound 30, Na2[Mn^IIcycHBET-NO2)]]

r1 (relaxivity) [1]: 0.34 mM⁻¹ s⁻¹
Half-cell potential [2]: 476 mV
Molecule: O=C([O-])CN(CCN(CC(=O)[O-])Cc1cc([N+](=O)[O-])ccc1[O-])CC(=O)[O-].[Mn+3].[Na+] [Compound 14, Na[Mn^IIIHBET-NO2]]

Relaxivity r1 (per Mn) ([3]; 0.47T): 9.07 mM⁻¹ s⁻¹
Relaxivity r1 per molecule ([3]; 0.47T): 54.4 mM⁻¹ s⁻¹
Relaxivity r1 (per Mn) ([3]; 1.4T): 9.28 mM⁻¹ s⁻¹
Relaxivity r1 per molecule ([3]; 1.4T): 55.7 mM⁻¹ s⁻¹
Relaxivity r1 (per Mn) ([3]; 4.7T): 6.54 mM⁻¹ s⁻¹
Relaxivity r1 per molecule ([3]; 4.7T): 39.2 mM⁻¹ s⁻¹
Relaxivity r1 (per Mn) ([3]; 9.4T): 4.94 mM⁻¹ s⁻¹
Relaxivity r1 per molecule ([3]; 9.4T): 29.6 mM⁻¹ s⁻¹
Relaxivity r1 (per Mn) ([3]; 11.7T): 3.57 mM⁻¹ s⁻¹
Relaxivity r1 per molecule ([3]; 11.7T): 21.4 mM⁻¹ s⁻¹
Molecule: Mn6[N3P3-(TyOH-EDTA)6] [(XI)]

r1 (relaxivity) [1]: 2.28 mM⁻¹ s⁻¹
Molecule: O=C([O-])CN(CCN(CC(=O)[O-])Cc1cc([N+](=O)[O-])ccc1[O-])CC(=O)[O-].[Mn+2].[Na+].[Na+] [Compound 13, Na2[Mn^IIHBET-NO2]]

r1 (relaxivity) [1]: 3.26 mM⁻¹ s⁻¹
Molecule: O=C([O-])CN(CC(=O)[O-])C1CCCCC1N(CC(=O)[O-])Cc1ccccc1[O-].[Mn+2].[Na+].[Na+] (racemic) [Compound 20, Na2[Mn^IIcycHBET]]

r1 (relaxivity) [1]: 1.56 mM⁻¹ s⁻¹
Half-cell potential [2]: 365 mV
Molecule: O=C([O-])CN(CC(=O)[O-])C1CCCCC1N(CC(=O)[O-])Cc1ccccc1[O-].[Mn+3].[Na+] (stereo not shown) [Compound 21, Na[Mn^IIIcycHBET]]

r1 (relaxivity) [1]: 3.11 mM⁻¹ s⁻¹
Half-cell potential [2]: 344 mV
Molecule: COc1ccc([O-])c(CN(CCN(CC(=O)[O-])CC(=O)[O-])CC(=O)[O-])c1.[Mn+2].[Na+].[Na+] [Compound 9, Na2[Mn^IIHBET-OMe]]

r1 (relaxivity) [1]: 1.05 mM⁻¹ s⁻¹
fold higher relaxivity of reduced form vs oxidized form [5]: 3.3 fold
Molecule: O=C([O-])CN(CCN(CC(=O)[O-])Cc1ccccc1[O-])CC(=O)[O-].[Mn+3].[Na+] [Compound 5, Na[Mn^IIIHBET]]
overall second-order rate constant of reduction by glutathione [4]: (3.8±0.3)×10^−1 M^−1s^−1

Half-cell potential [2]: 488 mV
Molecule: O=C([O-])CN(CC(=O)[O-])C1CCCCC1N(CC(=O)[O-])Cc1cc([N+](=O)[O-])ccc1[O-].[Mn+3].[Na+] (stereo not shown) [Compound 31, Na[Mn^IIIcycHBET-NO2]]

half-cell potential (Mn^II/Mn^III) ([2]; TRIS buffer pH 7.4, vs. K4Fe(CN)6/K3Fe(CN)6): 0.016 V
Molecule: O=C([O-])CN(CCN(CC(=O)[O-])Cc1ccccc1[O-])Cc1ccccc1[O-].[Mn+3] [Mn^III-HBED, reference compound]

Relaxivity r1 (per Mn) ([3]; 0.47T): 3.60 mM⁻¹ s⁻¹
Relaxivity r1 (per Mn) ([3]; 1.4T): 2.80 mM⁻¹ s⁻¹
Relaxivity r1 (per Mn) ([3]; 9.4T): 3.65 mM⁻¹ s⁻¹
Relaxivity r1 (per Mn) ([3]; 11.7T): 3.05 mM⁻¹ s⁻¹
Molecule: Na[Mn(TyOH-EDTA)] [(XII)]

Relaxivity r1 ([1]; 1.41T, 37° C., pH 7.4 Tris buffer): 2.50 mM⁻¹ s⁻¹
Molecule: [Mn(CyP3A)] [(IX)]
